{"source": "patent US20040228844A1", "about": "“Method for controlling harmful plant-parasitic nematodes” (priority 2003, published 2004)", "key": {"[1]": {"system": "Meloidogyne incognita", "test": "Test Example 2: gall control on cucumber seedlings in nematode-infested soil", "assay_type": "in vivo", "conditions": "20 kg /1000 m^2, 32 days after transplantation, (C−S)×100/C", "description": "To 3 kg of the Meloidogyne incognita-infested soil was applied each (100 mL) of the test solutions diluted at given concentrations and then the resulting soil was thoroughly mixed.\nThe gall control value was calculated by the following equation:\nGall control value=(C−S)×100/C\nwherein C is an average gall number per plant in a non-treated group, and S is an average gall number per plant in a treated group."}, "[2]": {"system": "Meloidogyne incognita", "test": "Test Example 1: root-knot damage of cucumber seedlings in nematode-infested soil", "conditions": "20 kg per 1000 m^2, soil mixing, 50 days after transplantation, scale 0 (no root-knots) to 5 (dead), average per 10 plants", "experimental": "To 5 kg of nematode-infested soil (nematode density: 2255 nematodes per 20 g (investigation method: Bellman's method)) in which Meloidogyne incognita seriously grew was applied each (100 mL) of the test solutions diluted at given concentrations: and then the resulting soil was thoroughly mixed. […] (diameter: about 3 mm), 500 g of each of the soil to which each test solution was applied and mixed was placed. Cucumber seedlings (14 days after sowing, 2 plants per cup, 5 replications) were transplanted in the cup, which contained each treated soil. After transplantation, the plants were left in a glass greenhouse.\nThe degree of root-knot damages was evaluated according to the following criteria:\n5: The plant is withered and dead due to parasitism of nematodes.\n4: A number of root-knots, which range to form-large root-knots, are observed on the entire roots.\n3: Root-knots are observed on the entire roots, and large root-knots being partly formed.\n2: Formation of root-knots is partly observed on the root, and some of them ranging, but no large root-knot is observed.\n1: A little formation of root-knots is observed.\n0: No formation of root-knots is found."}}, "data": [{"compound": "CSCC[C@H](N)C(=O)O", "note": "[Component A Agent, methionine]", "values": [{"measurement": "Gall Control Value", "setting": "[1]", "result": 44}, {"measurement": "Average Degree of Root-Knots Damages", "setting": "[2]", "result": 3.2}]}]}
